Reference: PubChem BioAssay AID342 (DTP/NCI, 2004)
“And” between values parts separate entries of the source, which are not always exact repeats. Identical values can stand only once.

Test system: Swiss mice, Sarcoma 180 sc, mean tumor weight T/C
Experiment: NCI In Vivo Anticancer Drug Screen. Data for tumor model Sarcoma 180 (subcutaneous) in Swiss mice
Conditions: endpoint: mean tumor weight, higher = larger tumour
Method in brief: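 T/C ratio: treated over vehicle-treated controls, measuring survival or tumor size in transplanted-tumor mice.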

[1] = dose: 125.0 mg/kg/injection, schedule: Q01DX007 (ip), vehicle: carboxymethylcellulose (CMC)
[2] = dose: 250.0 mg/kg/injection, schedule: Q01DX007 (ip), vehicle: carboxymethylcellulose (CMC)
[3] = dose: 200.0 mg/kg/injection, schedule: Q01DX007 (ip), vehicle: saline
[4] = dose: 125.0 mg/kg/injection, schedule: Q01DX007 (sc), vehicle: steriod suspending solution

For CCOC(=O)c1ccc(N=NN(C)C)cc1, the T/C (dose: 62.0 mg/kg/injection, schedule: Q01DX007 (ip), vehicle: carboxymethylcellulose (CMC)) was 74 % of control, the T/C [1] was 49 % of control and the T/C (dose: 187.0 mg/kg/injection, schedule: Q01DX007 (ip), vehicle: carboxymethylcellulose (CMC)) was 23 % of control. The T/C [2] was 12 % of control.

With CCCCCC[C@@H](O)C/C=C\CCCCCCCC(=O)O the T/C (dose: 31.3 mg/kg/injection, schedule: Q01DX007 (ip), vehicle: saline) was 59 % of control, the T/C (dose: 62.5 mg/kg/injection, schedule: Q01DX007 (ip), vehicle: saline) was 95 % of control and the T/C (dose: 125.0 mg/kg/injection, schedule: Q01DX007 (ip), vehicle: saline) was 87 % of control.

In the case of CNC(=O)NO, the T/C (dose: 50.0 mg/kg/injection, schedule: Q01DX007 (ip), vehicle: water) is reported as 100 % of control, the T/C (dose: 100.0 mg/kg/injection, schedule: Q01DX007 (ip), vehicle: water) is reported as 109 % of control and the T/C (dose: 200.0 mg/kg/injection, schedule: Q01DX007 (ip), vehicle: water) is reported as 95 % of control. The T/C (dose: 400.0 mg/kg/injection, schedule: Q01DX007 (ip), vehicle: water) was 60 % of control.

With O=c1[nH]cc(C(F)(F)F)c(=O)[nH]1 the T/C [3] was 63 % of control and the T/C (dose: 300.0 mg/kg/injection, schedule: Q01DX007 (ip), vehicle: saline) was 73 % of control.

In the case of O=C(Nc1ccc(Sc2ccc(N=Nc3c(O)c(S(=O)(=O)O)cc4cc(S(=O)(=O)O)ccc34)cc2)cc1)c1ccc(N=Nc2ccc3c(S(=O)(=O)O)cccc3c2O)cc1, the T/C (dose: 55.0 mg/kg/injection, schedule: Q01DX007 (ip), vehicle: carboxymethylcellulose (CMC)) is reported as 68 % of control and 78 % of control, the T/C (dose: 84.0 mg/kg/injection, schedule: Q01DX007 (ip), vehicle: carboxymethylcellulose (CMC)) is reported as 72 % of control and 75 % of control and the T/C [1] is reported as 28 % of control. For the same molecule, the T/C (dose: 188.0 mg/kg/injection, schedule: Q01DX007 (ip), vehicle: carboxymethylcellulose (CMC)) was 25 % of control.

For CS(=O)(=O)OCC#CCOS(C)(=O)=O, the T/C (dose: 10.0 mg/kg/injection, schedule: Q01DX007 (ip), vehicle: saline) was 99 % of control, the T/C (dose: 20.0 mg/kg/injection, schedule: Q01DX007 (ip), vehicle: saline) was 84 % of control and the T/C (dose: 40.0 mg/kg/injection, schedule: Q01DX007 (ip), vehicle: saline) was 104 % of control.

O=CN(O)CC(=O)O was tested, and the T/C (dose: 62.5 mg/kg/injection, schedule: Q01DX007 (ip), vehicle: carboxymethylcellulose (CMC)) was 105 % of control, the T/C [2] was 83 % of control and the T/C (dose: 500.0 mg/kg/injection, schedule: Q01DX007 (ip), vehicle: carboxymethylcellulose (CMC)) was 84 % of control. For the same molecule, the T/C (dose: 750.0 mg/kg/injection, schedule: Q01DX007 (ip), vehicle: carboxymethylcellulose (CMC)) was 62 % of control and the T/C (dose: 1000.0 mg/kg/injection, schedule: Q01DX007 (ip), vehicle: carboxymethylcellulose (CMC)) was 61 % of control.

With Cc1cn(C2OC(CO)C(O)C2O)c(=O)[nH]c1=O (stereo not drawn) the T/C (dose: 7.5 mg/kg/injection, schedule: Q01DX007 (ip), vehicle: saline) was 90 % of control, the T/C (dose: 30.0 mg/kg/injection, schedule: Q01DX007 (ip), vehicle: saline) was 115 % of control and the T/C (dose: 60.0 mg/kg/injection, schedule: Q01DX007 (ip), vehicle: saline) was 89 % of control. The T/C (dose: 120.0 mg/kg/injection, schedule: Q01DX007 (ip), vehicle: saline) was 99 % of control.

In the case of Nc1nc(SN=Nc2ccc(S(=O)(=O)O)cc2)c2[nH]cnc2n1, the T/C (dose: 1.75 mg/kg/injection, schedule: Q01DX007 (ip), vehicle: other) is reported as 104 % of control, the T/C (dose: 3.5 mg/kg/injection, schedule: Q01DX007 (ip), vehicle: other) is reported as 80 % of control and the T/C (dose: 6.0 mg/kg/injection, schedule: Q01DX007 (ip), vehicle: other) is reported as 65 % of control. For the same molecule, the T/C (dose: 7.0 mg/kg/injection, schedule: Q01DX007 (ip), vehicle: other) was 46 % of control, the T/C (dose: 9.0 mg/kg/injection, schedule: Q01DX007 (ip), vehicle: other) was 57 % of control and the T/C (dose: 14.0 mg/kg/injection, schedule: Q01DX007 (ip), vehicle: other) was 18 % of control and 27 % of control and 33 % of control. For the same molecule, the T/C (dose: 21.0 mg/kg/injection, schedule: Q01DX007 (ip), vehicle: other) was 1 % of control and 14 % of control.

CCOC(=O)CCc1ccc(N=NN2CCCC2)cc1 was tested, and the T/C (dose: 225.0 mg/kg/injection, schedule: Q01DX007 (ip), vehicle: carboxymethylcellulose (CMC)) was 110 % of control and the T/C (dose: 450.0 mg/kg/injection, schedule: Q01DX007 (ip), vehicle: carboxymethylcellulose (CMC)) was 95 % of control.

In the case of COc1ccc2c(=O)cc(-c3ccccc3)n(C)c2c1, the T/C (dose: 50.0 mg/kg/injection, schedule: Q01DX007 (ip), vehicle: saline) is reported as 68 % of control, the T/C (dose: 100.0 mg/kg/injection, schedule: Q01DX007 (ip), vehicle: saline) is reported as 110 % of control and the T/C [3] is reported as 109 % of control. The T/C (dose: 400.0 mg/kg/injection, schedule: Q01DX007 (ip), vehicle: saline) was 76 % of control.

With O=CNC(Cc1cccc(N(CCCl)CCCl)c1)C(=O)O (stereo not drawn) the T/C (dose: 2.5 mg/kg/injection, schedule: Q#A X014 (ip), vehicle: methylcellulose (MC)) was 45 % of control, the T/C (dose: 4.5 mg/kg/injection, schedule: Q#A X014 (ip), vehicle: methylcellulose (MC)) was 21 % of control and 25 % of control and the T/C (dose: 5.0 mg/kg/injection, schedule: Q#A X014 (ip), vehicle: methylcellulose (MC)) was 52 % of control. For the same molecule, the T/C (dose: 7.5 mg/kg/injection, schedule: Q#A X014 (ip), vehicle: methylcellulose (MC)) was 18 % of control and the T/C (dose: 15.0 mg/kg/injection, schedule: Q#A X014 (ip), vehicle: methylcellulose (MC)) was 20 % of control.

CC[C@H](c1ccc(O)cc1)[C@@H](CC)c1ccc(O)cc1 was tested, and the T/C (dose: 3.8 mg/kg/injection, schedule: Q01DX007 (sc), vehicle: steriod suspending solution) was 186 % of control, the T/C (dose: 7.5 mg/kg/injection, schedule: Q01DX007 (sc), vehicle: steriod suspending solution) was 67 % of control and the T/C (dose: 15.0 mg/kg/injection, schedule: Q01DX007 (sc), vehicle: steriod suspending solution) was 37 % of control and 43 % of control. For the same molecule, the T/C (dose: 62.0 mg/kg/injection, schedule: Q01DX007 (sc), vehicle: steriod suspending solution) was 49 % of control and 67 % of control, the T/C [4] was 40 % of control and 43 % of control and the T/C (dose: 250.0 mg/kg/injection, schedule: Q01DX007 (sc), vehicle: steriod suspending solution) was 54 % of control.

With CCC(c1ccc2cc(OC)ccc2c1)C(C)(C)C(=O)F (stereo not drawn) the T/C (dose: 55.0 mg/kg/injection, schedule: Q01DX007 (sc), vehicle: steriod suspending solution) was 35 % of control and 52 % of control, the T/C (dose: 83.0 mg/kg/injection, schedule: Q01DX007 (sc), vehicle: steriod suspending solution) was 31 % of control and 49 % of control and the T/C [4] was 27 % of control and 39 % of control. For the same molecule, the T/C (dose: 188.0 mg/kg/injection, schedule: Q01DX007 (sc), vehicle: steriod suspending solution) was 39 % of control and 40 % of control.

In the case of CC(C)Sc1nc(N)nc2c1ncn2C1OC(CO)C(O)C1O (stereo not drawn), the T/C (dose: 1.35 mg/kg/injection, schedule: Q#A X014 (ip), vehicle: methylcellulose (MC)) is reported as 69 % of control, the T/C (dose: 2.05 mg/kg/injection, schedule: Q#A X014 (ip), vehicle: methylcellulose (MC)) is reported as 95 % of control and the T/C (dose: 3.12 mg/kg/injection, schedule: Q#A X014 (ip), vehicle: methylcellulose (MC)) is reported as 53 % of control. For the same molecule, the T/C (dose: 4.65 mg/kg/injection, schedule: Q#A X014 (ip), vehicle: methylcellulose (MC)) was 86 % of control.

In the case of CCCCCCCCCCCCNCCCCCCCCCCCC, the T/C (dose: 2.5 mg/kg/injection, schedule: Q01DX007 (ip), vehicle: water) is reported as 107 % of control, the T/C (dose: 5.0 mg/kg/injection, schedule: Q01DX007 (ip), vehicle: water) is reported as 54 % of control and the T/C (dose: 7.5 mg/kg/injection, schedule: Q01DX007 (ip), vehicle: water) is reported as 60 % of control. The T/C (dose: 10.0 mg/kg/injection, schedule: Q01DX007 (ip), vehicle: water) was 44 % of control.

In the case of O=C(CBr)c1ccc(Br)cc1, the T/C (dose: 7.5 mg/kg/injection, schedule: Q01DX007 (ip), vehicle: other) is reported as 63 % of control, the T/C (dose: 15.0 mg/kg/injection, schedule: Q01DX007 (ip), vehicle: other) is reported as 49 % of control and 73 % of control and the T/C (dose: 20.0 mg/kg/injection, schedule: Q01DX007 (ip), vehicle: other) is reported as 42 % of control.

With CCCCNP(=O)(N1CC1)N1CC1 the T/C (dose: 0.15 mg/kg/injection, schedule: Q#A X014 (ip), vehicle: saline) was 18 % of control and the T/C (dose: 0.25 mg/kg/injection, schedule: Q#A X014 (ip), vehicle: saline) was 7 % of control.

For O=C(O)Cc1ccc(C2CCCCC2)cc1, the T/C (dose: 37.5 mg/kg/injection, schedule: Q01DX007 (ip), vehicle: carboxymethylcellulose (CMC)) was 120 % of control, the T/C (dose: 75.0 mg/kg/injection, schedule: Q01DX007 (ip), vehicle: carboxymethylcellulose (CMC)) was 115 % of control and the T/C (dose: 150.0 mg/kg/injection, schedule: Q01DX007 (ip), vehicle: carboxymethylcellulose (CMC)) was 80 % of control. For the same molecule, the T/C (dose: 300.0 mg/kg/injection, schedule: Q01DX007 (ip), vehicle: carboxymethylcellulose (CMC)) was 70 % of control and 75 % of control and the T/C (dose: 600.0 mg/kg/injection, schedule: Q01DX007 (ip), vehicle: carboxymethylcellulose (CMC)) was 67 % of control.

O=C(N/N=C/C=C/c1ccccc1)[C@H](O)[C@@H](O)C(=O)N/N=C/C=C/c1ccccc1 was tested, and the T/C (dose: 111.0 mg/kg/injection, schedule: Q#A X014 (ip), vehicle: saline) was 57 % of control, the T/C (dose: 166.5 mg/kg/injection, schedule: Q#A X014 (ip), vehicle: saline) was 40 % of control and the T/C (dose: 250.0 mg/kg/injection, schedule: Q#A X014 (ip), vehicle: saline) was 57 % of control.
